Consider seven compounds from patent US10533006B2, “Nitrogen-containing heterocycle and carbocycle derivatives having TrkA inhibitory activity” (Shionogi & Co., Ltd., priority 2016, dated 2020).

Read-outs that look alike come from different tables or passages of the source. Bounds are passed on as bounds.

The target in data set [1] is T1, human TrkA (Homo sapiens, UniProt P04629).
T1 construct: purchased Lifetechnologies PV3144
The experiment in a line: Human TrkA inhibition assay. The data set is classed as biochemical. The settings on record: human TrkA phosphorylation inhibition, ATP 500 μmol/L. An outline of the steps: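 Human TrkA (1 nmol/L final) preincubated 15 min with compound, then FL-peptide 27 (1.5 μmol/L) and ATP (500 μmol/L) added; 120 min at 37 °C in HEPES/MgCl2/DTT buffer. Mobility-shift measurement of phosphorylated vs non-phosphorylated substrate; IC50 by logistic regression over 3-fold dilution series.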

Data set [2] addresses T2, CYP3A4 (Homo sapiens, UniProt P08684).
T2 construct: from tissue; host or cells: pooled human liver microsomes
In words: CYP3A4 (MDZ) MBI test. The data set is classed as in vitro ADME. The following applies: pooled human liver microsomes, midazolam 1-hydroxylation, preincubation 0 vs 30 min. The procedure: CYP3A4 (MDZ) MBI test is a test of investigating mechanism based inhibition potential on CYP3A4 by the enhancement of inhibitory degree of a metabolic reaction caused by the compound of the present invention. CYP3A4 inhibition was evaluated using pooled human liver microsomes by 1-hydroxylation reaction of midazolam (MDZ) as a marker reaction.
The reaction conditions are as follows: substrate, 10 μmol/L MDZ; pre-reaction time, 0 or 30 minutes; substrate reaction time, 2 minutes; reaction temperature, 37° C.; protein content of pooled human liver microsomes, at pre-reaction time 0.5 mg/mL, at reaction time […] (at 10-fold dilution); concentrations of the compound of the present invention, 1, 5, 10, 20 μmol/L (four points).
Pooled human liver microsomes and a solution of the compound of the present invention in K-Pi buffer (pH 7.4) as a pre-reaction solution were added to a 96-well plate at the composition of the pre-reaction. A part of pre-reaction solution was transferred to another 96-well plate, and 1/10 diluted by K-Pi buffer containing a substrate. NADPH as a co-factor was added to initiate a reaction as a marker reaction (preincubation 0 min). After a predetermined time of a reaction, methanol/acetonitrile=l/1 (v/v) solution was added to stop the reaction. In addition, NADPH was added to a remaining pre-reaction solution to initiate a pre-reaction (preincubation 30 min). After a predetermined time of a pre-reaction, a part was transferred to another 96-well plate, and 1/10 diluted by K-Pi buffer containing a substrate to initiate a reaction as a marker reaction. After a predetermined time of a reaction, methanol/acetonitrile=1/1 (v/v) solution was added to stop the reaction. After centrifuged at 3000 rpm for 15 minutes, 1-hydroxymidazolam in the supernatant was quantified by LC/MS/MS.
The sample adding DMSO as a solvent to a reaction system instead of a solution dissolving the compound of the present invention was adopted as a control (100%). Remaining activity (%) was calculated at each concentration of the compound of the present invention compared to a control, and IC value was calculated by reverse-presumption by a logistic model using a concentration and an inhibition rate. Shifted IC value was calculated as “IC of preincubation at 0 min/IC of preincubation at 30 min”. When a shifted IC is 1.5 or more, this is defined as positive. When a shifted IC is 1.0 or less, this is defined as negative.
Background: Liver microsomes are vesicles of endoplasmic reticulum, rich in cytochrome P450 enzymes.

The target in data set [3] is T3, hERG channel (IKr) (Homo sapiens, UniProt Q12809).
T3 construct: expressed in transfected cells; host or cells: CHO cells
In words: hERG test (whole cell patch clamp, IKr). Format: cell-based. The settings on record: CHO cells expressing hERG channel, read-out: % inhibition of tail peak current (IKr); for inhibition at 30 μmol/L: pH 7.4, 30 μmol/L of test compound; for inhibition at 5 μmol/L: pH 7.4, 5 μmol/L of test compound. The text has this:
For the purpose of assessing risk of an electrocardiogram QT interval prolongation of the compound of the present invention, effects of the compound of the present invention on delayed rectifier K+ current (IKr), which plays an important role in the ventricular repolarization process, was studied using CHO cells expressing human ether-a-go-go related gene (hERG) channel.
After a cell was retained at a membrane potential of −80 mV by whole cell patch clamp method using an automated patch clamp system (QPatch; Sophion Bioscience A/S) and gave a leak potential of −50 mV, IKr induced by depolarization pulse stimulation at +20 mV for 2 seconds, and further, repolarization pulse stimulation at −50 mV for 2 seconds, was recorded. A vehicle, which is the 0.1-0.3% dimethyle sulfoxide solution in extracellular solution (NaCl: 145 mmol/L, KCl: 4 mmol/L, CaCl2: 2 mmol/L, MgCl2: 1 mmol/L, glucose: 10 mmol/L, HEPES (4-(2-hydroxyethyl)-1-piperazineethanesulfonic acid): 10 mmol/L, pH7.4), or the compound of the present invention had been dissolved at an objective concentration in the extracellular solution is applied to the cell at room temperature for 7 minutes or more. From the recording IKr, an absolute value of the tail peak current was measured based on the current value at the resting membrane potential using analysis software (QPatch assay software; Sophion Bioscience A/S). Further, the % inhibition of tail peak current for the compound of the present invention relative to the tail peak current after application of the vehicle is calculated to assess influence of the compound of the present invention on IKr.
In general terms: The hERG channel carries a current that helps repolarise heart muscle cells.

T1 sequence (P04629 33-796): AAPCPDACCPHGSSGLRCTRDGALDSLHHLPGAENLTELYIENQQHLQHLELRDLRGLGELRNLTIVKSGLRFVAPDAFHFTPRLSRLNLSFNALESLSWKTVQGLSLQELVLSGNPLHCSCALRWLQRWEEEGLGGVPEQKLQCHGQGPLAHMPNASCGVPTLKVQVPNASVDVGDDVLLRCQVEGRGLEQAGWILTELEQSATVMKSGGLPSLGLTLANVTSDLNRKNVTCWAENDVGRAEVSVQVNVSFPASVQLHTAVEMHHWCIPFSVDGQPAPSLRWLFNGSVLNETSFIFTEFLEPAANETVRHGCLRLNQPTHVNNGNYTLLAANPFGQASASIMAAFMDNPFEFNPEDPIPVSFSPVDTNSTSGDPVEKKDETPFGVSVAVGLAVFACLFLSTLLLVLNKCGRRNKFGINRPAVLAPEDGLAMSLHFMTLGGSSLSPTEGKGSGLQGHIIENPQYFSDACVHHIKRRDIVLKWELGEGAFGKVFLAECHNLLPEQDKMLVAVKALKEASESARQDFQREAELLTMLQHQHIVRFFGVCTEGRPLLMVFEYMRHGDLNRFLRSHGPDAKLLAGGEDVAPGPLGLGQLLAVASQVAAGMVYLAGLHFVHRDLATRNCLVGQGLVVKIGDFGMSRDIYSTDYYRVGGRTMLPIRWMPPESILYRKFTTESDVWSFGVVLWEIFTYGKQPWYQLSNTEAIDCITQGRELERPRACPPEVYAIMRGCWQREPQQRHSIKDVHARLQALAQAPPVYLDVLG
T2 sequence (P08684 whole entry): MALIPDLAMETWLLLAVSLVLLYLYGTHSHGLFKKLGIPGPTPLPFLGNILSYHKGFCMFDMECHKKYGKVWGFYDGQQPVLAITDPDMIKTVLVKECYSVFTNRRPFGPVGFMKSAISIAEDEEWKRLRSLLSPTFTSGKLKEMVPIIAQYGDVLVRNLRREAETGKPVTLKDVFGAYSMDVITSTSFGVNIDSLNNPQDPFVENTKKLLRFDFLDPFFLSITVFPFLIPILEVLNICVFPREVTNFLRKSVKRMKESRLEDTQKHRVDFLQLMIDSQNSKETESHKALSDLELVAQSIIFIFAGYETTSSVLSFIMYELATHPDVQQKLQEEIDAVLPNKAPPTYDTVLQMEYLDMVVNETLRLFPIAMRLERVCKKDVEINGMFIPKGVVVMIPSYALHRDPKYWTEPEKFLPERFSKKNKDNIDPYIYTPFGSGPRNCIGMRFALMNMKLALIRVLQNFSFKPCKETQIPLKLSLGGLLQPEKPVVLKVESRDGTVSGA
T3 sequence (Q12809 whole entry): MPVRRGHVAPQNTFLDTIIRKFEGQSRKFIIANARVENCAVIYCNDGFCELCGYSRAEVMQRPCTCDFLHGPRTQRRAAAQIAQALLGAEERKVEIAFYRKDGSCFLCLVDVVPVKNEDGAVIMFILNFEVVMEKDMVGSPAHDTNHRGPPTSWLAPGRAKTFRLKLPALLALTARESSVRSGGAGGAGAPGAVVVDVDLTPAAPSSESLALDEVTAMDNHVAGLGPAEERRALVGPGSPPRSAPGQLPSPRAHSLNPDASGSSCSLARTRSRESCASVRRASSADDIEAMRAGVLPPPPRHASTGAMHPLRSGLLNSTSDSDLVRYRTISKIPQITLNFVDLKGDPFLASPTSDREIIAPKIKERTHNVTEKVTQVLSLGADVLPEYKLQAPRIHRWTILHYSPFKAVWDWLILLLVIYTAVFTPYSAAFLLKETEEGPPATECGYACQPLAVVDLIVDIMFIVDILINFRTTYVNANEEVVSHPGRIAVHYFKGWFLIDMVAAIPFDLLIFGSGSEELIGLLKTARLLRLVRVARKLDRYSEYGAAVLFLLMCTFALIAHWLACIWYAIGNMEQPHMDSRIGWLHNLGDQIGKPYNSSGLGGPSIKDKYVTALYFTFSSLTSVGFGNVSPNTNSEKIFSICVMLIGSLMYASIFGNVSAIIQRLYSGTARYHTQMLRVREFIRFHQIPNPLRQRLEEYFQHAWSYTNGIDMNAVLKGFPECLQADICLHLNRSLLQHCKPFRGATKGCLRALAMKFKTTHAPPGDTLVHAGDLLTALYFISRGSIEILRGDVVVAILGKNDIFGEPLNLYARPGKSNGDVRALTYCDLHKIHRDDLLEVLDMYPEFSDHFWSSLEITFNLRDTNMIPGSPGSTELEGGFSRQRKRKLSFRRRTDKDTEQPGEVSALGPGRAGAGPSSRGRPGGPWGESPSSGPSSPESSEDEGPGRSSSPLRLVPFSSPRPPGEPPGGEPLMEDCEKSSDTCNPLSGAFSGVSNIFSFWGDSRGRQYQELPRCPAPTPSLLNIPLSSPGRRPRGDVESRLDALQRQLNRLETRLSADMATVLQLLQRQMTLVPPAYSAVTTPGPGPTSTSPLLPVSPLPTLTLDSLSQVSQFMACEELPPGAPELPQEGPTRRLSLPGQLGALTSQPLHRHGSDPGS

`COCC[C@@H]1C[C@@H](NC(=O)Nc2c(C)c(-c3cnc(C)nc3)nn2-c2ccccc2)[C@H](c2ccnc(F)c2)N1C` [Compound I-173]: the IC50 in data set [1] (read-out: IC50 value) was found to be 0.00092 µM. Also, the “mechanism based inhibition of CYP3A4 (shifted IC)” value in data set [2] was “Negative (When a shifted IC is 1.0 or less, this is defined as negative)”.

What is called inhibition is the change of the read-out against control, counted positive when it falls. As for `COCCN1C[C@@H](NC(=O)Nc2c(C)c(-c3cnn(C)c3)nn2-c2ccccc2)[C@H](c2cnc(F)c(F)c2)C1` (racemic) [Compound I-5], in data set [1] (read-out: IC50_nM), the IC50 is < 0.1 µM. For the same compound, in data set [2], the “mechanism based inhibition of CYP3A4 (shifted IC)” value is on record as “Negative (When a shifted IC is 1.0 or less, this is defined as negative)”. The inhibition at 30 μmol/L in data set [3] worked out at 35.3%.

Take `COCC[C@@H]1C[C@@H](NC(=O)Nc2c(C)c(-c3cnn(C)c3)nn2-c2ccccc2)[C@H](c2ccnc(F)c2)N1C` [Compound I-68]: in data set [1] (read-out: IC50_nM), the IC50 is < 0.1 µM. The “mechanism based inhibition of CYP3A4 (shifted IC)” value in data set [2] was “Negative (When a shifted IC is 1.0 or less, this is defined as negative)”. Besides, in data set [3], the inhibition at 30 μmol/L amounted to 12.8%.

With `CCOc1ncc(-c2nn(-c3ccccc3)c(NC(=O)N[C@@H]3C[C@@H](CCOC)C[C@H]3c3ccc(F)c(F)c3)c2C)cn1` [Compound I-169], the IC50 in data set [1] (read-out: IC50_nM) is < 0.1 µM. Moreover, the inhibition at 10 μmol/L in data set [3] (pH 7.4, 10 μmol/L of test compound) was determined as 21%.

Turning to `COCCN1C[C@@H](NC(=O)Nc2c(C)c(-c3cnc(CO)nc3)nn2-c2ccccc2)[C@H](c2ccccc2)C1` (racemic) [Compound I-10], the IC50 in data set [1] (read-out: IC50_nM) was < 0.1 µM. In addition, the inhibition at 5 μmol/L in data set [3] was found to be 34.6%.

On to `CCN1CCC(NC(=O)c2cc(-c3nn(-c4ccccc4)c(NC(=O)N[C@@H]4C[C@@H](CCOC)C[C@H]4c4ccccc4)c3C)ccn2)CC1` [Compound I-67], for which the IC50 in data set [1] (read-out: IC50_nM) is < 0.1 µM. Besides, the inhibition at 5 μmol/L in data set [3] came out at 16.3%.

Take `COCC[C@@H]1C[C@@H](NC(=O)Nc2c(C)c(-c3cnc(C)nc3)nn2-c2ccccc2)[C@H](c2ccnc(F)c2)C1` [Compound I-164]: in data set [1] (read-out: IC50 value), the IC50 stood at 0.0018 µM. Further, the “mechanism based inhibition of CYP3A4 (shifted IC)” value in data set [2] was “Negative (When a shifted IC is 1.0 or less, this is defined as negative)”.
